Test results from patent US6599913B1, “Treating allergic and inflammatory conditions” (Schering Corporation, priority 2001, dated 2003).

Columns and labels:
[1] = target: T1, human OATP (Homo sapiens, UniProt P46721); conditions: cited from earlier work
T1 sequence (P46721 1-670): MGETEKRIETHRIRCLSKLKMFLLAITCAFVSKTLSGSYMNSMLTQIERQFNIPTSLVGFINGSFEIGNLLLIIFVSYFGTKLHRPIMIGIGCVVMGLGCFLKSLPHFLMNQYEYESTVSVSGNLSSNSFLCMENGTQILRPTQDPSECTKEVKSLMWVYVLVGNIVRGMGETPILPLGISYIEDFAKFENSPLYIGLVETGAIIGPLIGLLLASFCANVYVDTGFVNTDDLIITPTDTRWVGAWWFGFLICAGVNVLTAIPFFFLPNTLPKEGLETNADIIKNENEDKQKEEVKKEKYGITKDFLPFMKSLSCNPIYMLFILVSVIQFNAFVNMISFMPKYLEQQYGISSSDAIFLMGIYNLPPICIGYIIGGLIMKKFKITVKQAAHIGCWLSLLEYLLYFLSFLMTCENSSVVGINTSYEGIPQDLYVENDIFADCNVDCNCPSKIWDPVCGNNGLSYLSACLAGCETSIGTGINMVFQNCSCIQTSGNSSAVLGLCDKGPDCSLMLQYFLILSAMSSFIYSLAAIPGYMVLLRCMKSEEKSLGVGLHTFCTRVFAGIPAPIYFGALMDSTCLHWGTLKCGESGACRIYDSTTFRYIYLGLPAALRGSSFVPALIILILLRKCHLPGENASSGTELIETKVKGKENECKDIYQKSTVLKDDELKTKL

[2] = target: T2, human OATP1 (Homo sapiens, UniProt P46721); conditions: at 10 μM; cited from earlier work
T2 sequence (P46721 1-670): T1 sequence (P46721 1-670)

[3] = target: T3, rat OATP1 (Rattus norvegicus, UniProt P46720); conditions: cited from earlier work
T3 sequence (P46720 1-670): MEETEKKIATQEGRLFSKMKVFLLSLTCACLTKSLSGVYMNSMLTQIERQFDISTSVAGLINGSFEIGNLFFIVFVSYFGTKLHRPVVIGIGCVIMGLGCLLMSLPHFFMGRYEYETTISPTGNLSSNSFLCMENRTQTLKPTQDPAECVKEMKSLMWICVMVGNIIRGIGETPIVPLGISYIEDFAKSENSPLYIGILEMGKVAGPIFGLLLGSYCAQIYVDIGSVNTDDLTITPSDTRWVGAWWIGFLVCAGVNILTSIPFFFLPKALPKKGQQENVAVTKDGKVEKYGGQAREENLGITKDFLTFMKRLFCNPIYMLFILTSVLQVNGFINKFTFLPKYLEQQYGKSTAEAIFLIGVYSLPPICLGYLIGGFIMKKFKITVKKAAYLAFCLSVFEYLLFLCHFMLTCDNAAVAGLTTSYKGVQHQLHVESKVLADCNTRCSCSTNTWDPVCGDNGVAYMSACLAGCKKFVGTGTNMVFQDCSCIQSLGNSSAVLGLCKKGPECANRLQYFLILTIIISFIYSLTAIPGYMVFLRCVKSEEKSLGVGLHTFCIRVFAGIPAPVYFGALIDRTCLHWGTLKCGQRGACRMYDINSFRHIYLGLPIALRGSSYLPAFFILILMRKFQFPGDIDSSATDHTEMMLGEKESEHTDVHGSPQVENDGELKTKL

[4] = Treatment of chronic idiopathic urticaria; conditions: oral administration
[5] = Double-blinded randomized clinical trials in seasonal allergic rhinitis
Description: Efficacy endpoints in all the studies were Total Symptom Score, Total Nasal Symptom Score, Total Non-nasal Symptom Score, and Health Quality of Life (HQOL) analysis in efficacy trials. […] This parameter measures the total symptom relief by the patient after 24 hours before taking the next day dose.

[6] = target: P-gp (UniProt P21448); conditions: ATP hydrolysis
Description: The invention will be further described by reference to the following study.
A direct functional assay was performed with […] as described previously. Ibid. The consumption of ATP was determined by the liberated inorganic orthophosphate, which forms a color complex with molybdate.
If a compound is a substrate of P-gp the hydrolysis of ATP is required as the driving force. As ATP is consumed at a purported rate of about one or two per transport event, the hydrolysis of ATP represents transport rate or activity assay of function. […] Any change in the rate of ATP hydrolysis represents the sum of the basal activity and the contribution of the exogenous substrate to ATP hydrolysis.

**Q.** Which results are given for `CC(C)c1nc(CN(C)C(=O)N[C@H](C(=O)N[C@@H](Cc2ccccc2)C[C@H](O)[C@H](Cc2ccccc2)NC(=O)OCc2cncs2)C(C)C)cs1` [ritonavir]?
**A.** Inhibition of fexofenadine uptake [1]: significant inhibition; Inhibition of human OATP1 [2]: effectively inhibit

**Q.** With APD-ajmalinium as the compound, how does the “Transport by rat OATP” value [3] read?
**A.** Its value is “transports”.

**Q.** With `Clc1ccc2c(c1)CCc1cccnc1C2=C1CCNCC1` [desloratadine] as the compound, how does the “Severity of pruritis, number of hives, size of largest hive, total symptom score” value [4] read?
**A.** The value was “significantly reduced”.

**Q.** What about the “Reduction of nasal symptoms versus placebo” value ([5]; 5 mg) of the same compound?
**A.** Its value is “significantly (p<0.01) more effective than placebo”.

**Q.** And the Total symptom scores ([5]; 5 mg once daily)?
**A.** Its Total symptom scores is “significantly reduced”.

**Q.** And the “AM NOW total symptom score” value ([5]; full 24 hour dosing interval, 5 mg to 20 mg)?
**A.** Its value is “Statistically significant (p<0.05) reductions”.

**Q.** For `CC(C)(C)NC(=O)[C@@H]1C[C@@H]2CCCC[C@@H]2CN1C[C@@H](O)[C@H](Cc1ccccc1)NC(=O)[C@H](CC(N)=O)NC(=O)c1ccc2ccccc2n1` [saquinavir], which “Inhibition of fexofenadine uptake” value [1] is on record?
**A.** Its value is “significant inhibition”.

**Q.** What about the “Inhibition of human OATP1” value [2] of the same compound?
**A.** Its value is “effectively inhibit”.

**Q.** Which results are given for `CCOC(=O)N1CCC(=C2c3ccc(Cl)cc3CCc3cccnc32)CC1` [loratadine]?
**A.** Vmax above basal activity ([6]; FIG. 3): ≈ 200%; Vmax as % of basal (control) activity ([6]; without H33342): about 200%

**Q.** For `CC[C@H](C)C(=O)O[C@H]1C[C@@H](C)C=C2C=C[C@H](C)[C@H](CC[C@@H]3C[C@@H](O)CC(=O)O3)[C@H]21` [lovastatin], which “Inhibition of fexofenadine uptake” value [1] is on record?
**A.** Its value is “significant inhibition”.

**Q.** What about the “Inhibition of rat OATP1” value ([3]; at 50 μM) of the same compound?
**A.** The value was “effectively inhibit”.

**Q.** And the “Inhibition of human OATP1” value [2]?
**A.** The value was “effectively inhibits”.
